Tests used:
[1] = tested on: PSMA-expressing LNCaP tumor xenografts; assay: Ex vivo biodistribution in LNCaP tumor-bearing mice; settings: LNCaP tumor-bearing mice, 1 h post injection, mean ± SD, n = 4
Experimental: Biodistribution studies were conducted at 1 h post injection with ^68Ga-labeled AV01017, AV01030, AV01038, HTK03041, and FAPI-04 in LNCaP tumor-bearing mice (Figure 5 and Table S4, Supplementary Materials). The results were consistent with the observation from their PET images. Tumor uptake values for [^68Ga]Ga-AV01017, [^68Ga]Ga-AV01030, [^68Ga]Ga-AV01038, [^68Ga]Ga-HTK03041, and [^68Ga]Ga-FAPI-04 were 4.38 ± 0.55, 5.17 ± 0.51, 4.25 ± 0.86, 23.1 ± 6.11, and 3.15 ± 1.43 %ID/g, respectively. […] Although not statistically significant, the bispecific tracers with a longer linker tend to have a higher blood uptake value (9.24 ± 1.55 %ID/g for [^68Ga]Ga-AV01017; 7.07 ± 0.31%ID/g for [^68Ga]Ga-AV01038; 5.75 ± 0.59 %ID/g for [^68Ga]Ga-AV01030) and a lower tumor-to-blood ratio (0.48 ± 0.11 for [^68Ga]Ga-AV01017; 0.60 ± 0.13 for [^68Ga]Ga-AV01038; 0.89 ± 0.03 for [^68Ga]Ga-AV01030).
(§1) Imaging and biodistribution studies were performed using male NOD.Cg-Rag1tm1Mom Il2rgtm1Wjl/SzJ (NRG) mice following previously published procedures. The experiments were conducted according to the guidelines established by the Canadian Council on Animal Care and approved by Animal Ethics Committee of the University of British Columbia. The mice were briefly sedated by inhalation of 2.5% isoflurane in oxygen, and 100 µL LNCaP (2 × 10^5 cells) or HEK293T:hFAP (8.5 × 10^6 cells) cells were inoculated subcutaneously behind the left shoulder. When the tumor grew to 5–8 mm in diameter over 3–4 weeks and 4–5 weeks for HEK293T:hFAP and LNCaP tumors, respectively, the mice were used for PET/CT imaging and biodistribution studies.
(§2) For biodistribution studies, the mice were injected with the radiotracer (~2–4 MBq) as described above. At 1 h post injection, the mice were euthanized by CO2 inhalation. Blood was withdrawn by cardiac puncture, and organs/tissues of interest were collected, weighed, and counted using a Perkin Elmer (Waltham, MA, USA) Wizard2 2480 automatic gamma counter.

[2] = tested on: FAP-expressing HEK293T:hFAP tumor xenografts; assay: Ex vivo biodistribution in HEK293T:hFAP tumor-bearing mice; settings: 1 h post injection, mean ± SD, n = 4
Experimental: Biodistribution studies were also conducted at 1 h post injection with [^68Ga]Ga-AV01017, [^68Ga]Ga-AV01030, [^68Ga]Ga-AV01038, [^68Ga]Ga-HTK03041, and [^68Ga]Ga-FAPI-04 in HEK293T:hFAP tumor-bearing mice (Figure 6 and Table S5, Supplementary Materials). Tumor uptake values for [^68Ga]Ga-AV01017, [^68Ga]Ga-AV01030, [^68Ga]Ga-AV01038, [^68Ga]Ga-HTK03041, and [^68Ga]Ga-FAPI-04 were 2.99 ± 0.37, 3.69 ± 0.81, 3.64 ± 0.83, 0.62 ± 0.19, and 12.5 ± 2.00 %ID/g, respectively. There was a very low tumor uptake in mice injected with [^68Ga]Ga-HTK03041, showing very minimal FAP expression in this tumor model. The uptake levels of these tracers on the major organs and tissues are consistent with the trends observed in the LNCaP tumor-baring mice (Figure 5 and Supplemental Table S4).
as §1, §2

N#C[C@@H]1CC(F)(F)CN1C(=O)CNC(=O)c1ccnc2ccc(-c3cn(CC(=O)N[C@@H](CCCCNC(=O)CN4CCN(CC(=O)[O-])CCN(CC(=O)[O-])CCN(CC(=O)[O-])CC4)C(=O)NCC(=O)NC[C@H]4CC[C@H](C(=O)N[C@@H](Cc5c6ccccc6cc6ccccc56)C(=O)NCCCC[C@H](NC(=O)N[C@@H](CCC(=O)O)C(=O)O)C(=O)O)CC4)nn3)cc12.[68Ga+3] [[^68Ga]Ga-AV01030]
Adrenal glands uptake [1]: 3.13 ± 1.25 %ID/g
Blood uptake [1]: 5.75 ± 0.59 %ID/g
Bone uptake [1]: 4.48 ± 0.59 %ID/g
Brain uptake [1]: 0.12 ± 0.01 %ID/g
Fat uptake [1]: 0.68 ± 0.12 %ID/g
Heart uptake [1]: 2.41 ± 0.13 %ID/g
Kidneys uptake [1]: 44.0 ± 2.42 %ID/g
LNCaP tumor uptake [1]: 5.17 ± 0.51 %ID/g
Lacrimal glands uptake [1]: 0.44 ± 0.68 %ID/g
Large Intestine uptake [1]: 1.32 ± 0.29 %ID/g
Liver uptake [1]: 1.43 ± 0.26 %ID/g
Lungs uptake [1]: 2.93 ± 0.28 %ID/g
Muscle uptake [1]: 1.59 ± 0.14 %ID/g
Pancreas uptake [1]: 3.63 ± 0.29 %ID/g
Salivary glands uptake [1]: 4.76 ± 1.79 %ID/g
Seminal vesicle uptake [1]: 1.04 ± 0.13 %ID/g
Small Intestine uptake [1]: 1.58 ± 0.13 %ID/g
Spleen uptake [1]: 6.50 ± 1.37 %ID/g
Stomach uptake [1]: 0.44 ± 0.07 %ID/g
Testes uptake [1]: 0.70 ± 0.08 %ID/g
Thyroid uptake [1]: 8.33 ± 0.41 %ID/g
Tumor/blood uptake ratio [1]: 0.89 ± 0.03
Tumor/bone uptake ratio [1]: 1.17 ± 0.26
Tumor/kidney uptake ratio [1]: 0.11 ± 0.00
Tumor/muscle uptake ratio [1]: 3.25 ± 0.39
Adrenal glands uptake [2]: 3.15 ± 0.39 %ID/g
Blood uptake [2]: 5.68 ± 0.72 %ID/g
Bone uptake [2]: 3.59 ± 0.44 %ID/g
Brain uptake [2]: 0.12 ± 0.02 %ID/g
Fat uptake [2]: 0.63 ± 0.20 %ID/g
HEK293T:hFAP tumor uptake [2]: 3.69 ± 0.81 %ID/g
Heart uptake [2]: 2.20 ± 0.46 %ID/g
Kidneys uptake [2]: 30.0 ± 8.71 %ID/g
Lacrimal gland uptake [2]: 0.20 ± 0.24 %ID/g
Large Intestine uptake [2]: 1.15 ± 0.10 %ID/g
Liver uptake [2]: 1.51 ± 0.33 %ID/g
Lungs uptake [2]: 3.02 ± 0.25 %ID/g
Muscle uptake [2]: 1.78 ± 0.58 %ID/g
Pancreas uptake [2]: 3.26 ± 0.82 %ID/g
Salivary glands uptake [2]: 7.01 ± 2.25 %ID/g
Small Intestine uptake [2]: 1.23 ± 0.16 %ID/g
Spleen uptake [2]: 7.41 ± 1.75 %ID/g
Stomach uptake [2]: 0.42 ± 0.04 %ID/g
Testes uptake [2]: 0.66 ± 0.08 %ID/g
Thyroid uptake [2]: 7.70 ± 1.08 %ID/g
Tumor/bone uptake ratio [2]: 1.04 ± 0.31
Tumor/muscle uptake ratio [2]: 2.12 ± 0.30

N#C[C@@H]1CC(F)(F)CN1C(=O)CNC(=O)c1ccnc2ccc(OCc3cn(CC(=O)N[C@@H](CCCCNC(=O)CN4CCN(CC(=O)[O-])CCN(CC(=O)[O-])CCN(CC(=O)[O-])CC4)C(=O)NCC(=O)NC[C@H]4CC[C@H](C(=O)N[C@@H](Cc5c6ccccc6cc6ccccc56)C(=O)NCCCC[C@H](NC(=O)N[C@@H](CCC(=O)O)C(=O)O)C(=O)O)CC4)nn3)cc12.[68Ga+3] [[^68Ga]Ga-AV01038]
Adrenal glands uptake [1]: 3.69 ± 2.54 %ID/g
Blood uptake [1]: 7.07 ± 0.31 %ID/g
Bone uptake [1]: 4.64 ± 1.70 %ID/g
Brain uptake [1]: 0.15 ± 0.02 %ID/g
Fat uptake [1]: 1.01 ± 0.28 %ID/g
Heart uptake [1]: 3.26 ± 0.24 %ID/g
Kidneys uptake [1]: 40.5 ± 8.26 %ID/g
LNCaP tumor uptake [1]: 4.25 ± 0.86 %ID/g
Lacrimal glands uptake [1]: 0.06 ± 0.13 %ID/g
Large Intestine uptake [1]: 1.65 ± 0.31 %ID/g
Liver uptake [1]: 2.06 ± 0.13 %ID/g
Lungs uptake [1]: 3.74 ± 0.78 %ID/g
Muscle uptake [1]: 1.68 ± 0.21 %ID/g
Pancreas uptake [1]: 3.91 ± 0.20 %ID/g
Salivary glands uptake [1]: 6.41 ± 1.19 %ID/g
Seminal vesicle uptake [1]: 1.51 ± 0.08 %ID/g
Small Intestine uptake [1]: 2.12 ± 0.24 %ID/g
Spleen uptake [1]: 6.77 ± 4.86 %ID/g
Stomach uptake [1]: 0.64 ± 0.11 %ID/g
Testes uptake [1]: 1.04 ± 0.10 %ID/g
Thyroid uptake [1]: 11.1 ± 1.62 %ID/g
Tumor/blood uptake ratio [1]: 0.60 ± 0.13
Tumor/bone uptake ratio [1]: 0.97 ± 0.30
Tumor/kidney uptake ratio [1]: 0.10 ± 0.02
Tumor/muscle uptake ratio [1]: 2.52 ± 0.33
Adrenal glands uptake [2]: 6.14 ± 3.79 %ID/g
Blood uptake [2]: 7.45 ± 1.70 %ID/g
Bone uptake [2]: 3.03 ± 1.12 %ID/g
Brain uptake [2]: 0.13 ± 0.02 %ID/g
Fat uptake [2]: 0.53 ± 0.10 %ID/g
HEK293T:hFAP tumor uptake [2]: 3.64 ± 0.83 %ID/g
Heart uptake [2]: 2.69 ± 0.22 %ID/g
Kidneys uptake [2]: 25.0 ± 1.76 %ID/g
Lacrimal gland uptake [2]: 0.22 ± 0.16 %ID/g
Large Intestine uptake [2]: 0.99 ± 0.17 %ID/g
Liver uptake [2]: 2.16 ± 0.33 %ID/g
Lungs uptake [2]: 3.83 ± 0.55 %ID/g
Muscle uptake [2]: 1.23 ± 0.11 %ID/g
Pancreas uptake [2]: 3.82 ± 1.29 %ID/g
Salivary glands uptake [2]: 4.02 ± 0.69 %ID/g
Seminal vesicle uptake [2]: 1.15 ± 0.69 %ID/g
Small Intestine uptake [2]: 1.70 ± 0.19 %ID/g
Spleen uptake [2]: 5.47 ± 1.03 %ID/g
Stomach uptake [2]: 0.60 ± 0.18 %ID/g
Testes uptake [2]: 0.74 ± 0.09 %ID/g
Thyroid uptake [2]: 6.51 ± 1.07 %ID/g
Tumor/blood uptake ratio [2]: 0.49 ± 0.37
Tumor/bone uptake ratio [2]: 1.17 ± 0.40
Tumor/kidney uptake ratio [2]: 0.11 ± 0.02
Tumor/muscle uptake ratio [2]: 2.21 ± 0.17

N#C[C@@H]1CC(F)(F)CN1C(=O)CNC(=O)c1ccnc2ccc(OCCCN3CCN(C(=O)CN4CCN(CC(=O)[O-])CCN(CC(=O)[O-])CCN(CC(=O)[O-])CC4)CC3)cc12.[68Ga+3] [[^68Ga]Ga-FAPI-04, reference compound]
Adrenal glands uptake [1]: 2.16 ± 1.08 %ID/g
Blood uptake [1]: 2.16 ± 0.33 %ID/g
Bone uptake [1]: 4.27 ± 0.74 %ID/g
Brain uptake [1]: 0.06 ± 0.00 %ID/g
Fat uptake [1]: 0.55 ± 0.47 %ID/g
Heart uptake [1]: 0.70 ± 0.04 %ID/g
Kidneys uptake [1]: 2.36 ± 0.38 %ID/g
LNCaP tumor uptake [1]: 3.15 ± 1.43 %ID/g
Lacrimal glands uptake [1]: 0.06 ± 0.07 %ID/g
Large Intestine uptake [1]: 0.73 ± 0.09 %ID/g
Liver uptake [1]: 0.76 ± 0.08 %ID/g
Lungs uptake [1]: 1.23 ± 0.07 %ID/g
Muscle uptake [1]: 1.04 ± 0.20 %ID/g
Pancreas uptake [1]: 0.99 ± 0.25 %ID/g
Salivary glands uptake [1]: 1.36 ± 0.92 %ID/g
Seminal vesicle uptake [1]: 3.72 ± 5.09 %ID/g
Small Intestine uptake [1]: 0.74 ± 0.12 %ID/g
Spleen uptake [1]: 0.67 ± 0.11 %ID/g
Stomach uptake [1]: 0.26 ± 0.04 %ID/g
Testes uptake [1]: 0.42 ± 0.04 %ID/g
Thyroid uptake [1]: 3.62 ± 1.01 %ID/g
Tumor/blood uptake ratio [1]: 1.04 ± 0.42
Tumor/bone uptake ratio [1]: 0.51 ± 0.28
Tumor/kidney uptake ratio [1]: 0.90 ± 0.28
Tumor/muscle uptake ratio [1]: 2.30 ± 0.79
Adrenal glands uptake [2]: 1.07 ± 0.32 %ID/g
Blood uptake [2]: 1.07 ± 0.08 %ID/g
Bone uptake [2]: 3.36 ± 1.09 %ID/g
Brain uptake [2]: 0.04 ± 0.00 %ID/g
Fat uptake [2]: 0.10 ± 0.01 %ID/g
HEK293T:hFAP tumor uptake [2]: 12.5 ± 2.00 %ID/g
Heart uptake [2]: 0.34 ± 0.04 %ID/g
Kidneys uptake [2]: 1.83 ± 0.16 %ID/g
Liver uptake [2]: 0.36 ± 0.02 %ID/g
Lungs uptake [2]: 0.74 ± 0.11 %ID/g
Muscle uptake [2]: 0.67 ± 0.05 %ID/g
Pancreas uptake [2]: 0.37 ± 0.05 %ID/g
Seminal vesicle uptake [2]: 0.15 ± 0.04 %ID/g
Small Intestine uptake [2]: 0.36 ± 0.08 %ID/g
Spleen uptake [2]: 0.56 ± 0.11 %ID/g
Stomach uptake [2]: 0.07 ± 0.01 %ID/g
Testes uptake [2]: 0.28 ± 0.04 %ID/g
Tumor/blood uptake ratio [2]: 11.7 ± 2.04
Tumor/bone uptake ratio [2]: 3.93 ± 1.16
Tumor/kidney uptake ratio [2]: 6.85 ± 1.33
Tumor/muscle uptake ratio [2]: 18.8 ± 4.09

Source: publication PMC9921851, “Synthesis and Preclinical Evaluation of Three Novel ^68Ga-Labeled Bispecific PSMA/FAP-Targeting Tracers for Prostate Cancer Imaging” (Molecules, 2023)
